# Measured values: ChEMBL document CHEMBL4665833, “Systematic Study of the Glutathione Reactivity of N-Phenylacrylamides: 2. Effects of Acrylamide Substitution” (J Med Chem, 2020)
# Experiments:
# Type in all cases: ADME
# [1] = GSH reactivity in pH 7.4 phosphate buffer assessed as change in gibbs free energy at 1 uM in presence of glutathione measured up to 120 mins by LC/MS analysis; conditions: pH 7.4, 2 h
# [2] = GSH reactivity in pH 7.4 phosphate buffer assessed as pseudo first-order rate constant at 1 uM in presence of glutathione measured up to 120 mins by LC/MS analysis; conditions: pH 7.4, 2 h
# [3] = GSH reactivity in pH 7.4 phosphate buffer assessed as half life at 1 uM in presence of glutathione measured up to 120 mins by LC/MS analysis; conditions: phosphate buffer with glutathione
Structure (SMILES),deltaG [1],K [2],half-life at 1 µM [3]
CN(C)C/C=C/C(=O)Nc1ccccc1,23.9 kcal/mol,–,–
CN(C)CC/C=C/C(=O)Nc1ccccc1,24.7 kcal/mol,–,–
C=C(C(=O)Nc1ccccc1)C(F)(F)F,22.6 kcal/mol,–,–
CCN(CC)C/C=C/C(=O)Nc1ccccc1,24.1 kcal/mol,–,–
O=C(/C=C/C(F)F)Nc1ccccc1,23.3 kcal/mol,–,–
C=CC(=O)Nc1ccccc1,24.1 kcal/mol,–,–
O=C(/C=C/CN1CC(F)(F)C(F)(F)C1)Nc1ccccc1,> 24.7 kcal/mol,–,–
O=C(/C=C/CN1CCCC1)Nc1ccccc1,24.1 kcal/mol,–,–
O=C(/C=C/CN1CC(F)C1)Nc1ccccc1,–,< 1.35 10^-3/min,–
C=C(Cl)C(=O)Nc1ccccc1,21.6 kcal/mol,231 10^-3/min,0.05 h
CN(C/C=C/C(=O)Nc1ccccc1)CCF,–,2.13 10^-3/min,5.43 h
C=C(CN(C)C)C(=O)Nc1ccccc1,< 21.4 kcal/mol,–,–
